Test results from patent publication US12509462B2, “3-(phenylsulfonyl)-[1,2,3]triazolo[1,5A]quinazolin-5(4H)-one derivatives” (BIOVERSYS AG, priority 2018, dated 2025).
≈ marks a conversion by molar mass, not a printed value.

Tests used:
MRSA (USA300 isolate) = assay: Hemolysis Assay I (exotoxin-mediated lysis of rabbit red blood cells by culture supernatant); type: cell-based, Staphylococcus aureus; settings: 30/10/3.3/1.1/0.37 μM compound, values at OD600 of 0.75
[1] = tested on: Staphylococcus aureus MRSA strain (USA300 isolate); assay: Hemolysis Assay II (exotoxin-mediated lysis of rabbit red blood cells by culture filtrate); type: cell-based; settings: Erythrocyte; for minimal effective concentration / IC95: 18 h; for minimal effective concentration: absorbance <2× the average of the complete inhibition control, read-out: Hemolysis assay II MEC (minimal effective concentration); for IC95: read-out: Hemolysis assay II IC95; for IC50: 18 h culture in CA-MHB, rabbit red blood cells
psmα = type: cell-based, Staphylococcus aureus
RNAIII = type: cell-based, Staphylococcus aureus; settings: 10 μM compound, two hours, MRSA (USA300 isolate), normalized to rpoD
HepG2 = settings: human, 48 h
MRSA = assay: MIC by broth microdilution in CA-MHB (CLSI); settings: Staphylococcus aureus, 18 h, read-out: MIC on MRSA
Experimental: Minimal inhibitory concentrations (MIC) were determined by broth microdilution method in cation-adjusted Mueller-Hinton (CA-MHB) broth according to the CLSI guideline. From an overnight culture plate, cells were resuspended in 0.9% (w/v) saline solution and bacterial inoculum was prepared in CA-MHB with 5×10^5 CFU/ml. Compounds were two-fold serially diluted in CA-MHB and 10 μL of this 10× concentrated samples were added into the 96-well plate. 90 μL of bacterial suspension was finally added to the compounds. Plates were covered and incubated without shaking at 35° C. for 18 hours. Every experiment contained an antibiotic as quality control. MIC was determined visually as the lowest concentration of a compound that prevents visible growth of the bacteria and the plates were scanned for documentation.

[2] = target: AgrAc (C-terminal domain of AgrA) (Staphylococcus aureus, UniProt P0A0I7); type: binding; settings: 15N-AgrAc 100 μM, 1.6 mM compound
Sequence of AgrAc (C-terminal domain of AgrA) (P0A0I7 143-238): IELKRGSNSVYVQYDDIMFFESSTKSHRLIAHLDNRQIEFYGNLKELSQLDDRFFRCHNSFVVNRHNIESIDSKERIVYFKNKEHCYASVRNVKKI
Source text: 2D ^1H,^15N HSQC spectra were acquired at 298 K on a Bruker Avance IIIHD 600 MHz NMR spectrometer, equipped with a cryogenic triple resonance probe (Bruker, Karlsruhe, Germany). The proton chemical shifts were referenced using the methyl signal of sodium 3-trimethylsillyl-[2,2,3,3-d4]-propionate at 0 ppm. Spectra were processed with the Bruker TopSpin software package 3.5 and analyzed with the Sparky software. Assignments of AgrAc were deduced from the Biological Magnetic Resonance Bank (BMRB) entry 18598. Chemical shifts are reported in parts per million (δ) downfield from the internal standard tetramethylsilane (TMS). […]
For each sample tested, 400 μL of 15N-AgrAc @ […] in [50 mM NaPi pH6.3; 100 mM NaCl 3 mM THP; 5% D20; + TMSP] were mixed with 13 μL of the stock solution of the compound (dissolved in DMSO-d6). […] The samples were analysed on the 600 MHz spectrometer with the sample changer. […]
To produce ^15N-labeled C-terminal domain of AgrA (AgrAc), Escherichia coli BL21(DE3) cells were grown in a M9-based semi-rich medium: M9 medium supplemented with [^15N]—NH4Cl (1.5 g/liter), unlabeled D-glucose (4 g/liter), Isogro-^15N Powder-Growth medium (1 g/liter, 10%; Sigma-Aldrich). […] Elution of AgrAc was performed with a sharp gradient of imidazole (0-400 mM) and the fractions were analyzed by SDS-PAGE (4-20%). […] Protein concentration was estimated based on its UV absorbance at 280 nm.

red blood cell (RBC) = settings: cited from earlier work
S. aureus [3] = settings: cited from earlier work
MRSA USA300 type strain = settings: mice infected with a MRSA USA300 type strain, applied multiple times; cited from earlier work
S. aureus [4] = settings: cited from earlier work; remark: listed apart in the source
[5] = Staphylococcus aureus, Erythrocyte

Compound	IC50 (MRSA (USA300 isolate); [5])	minimal effective concentration [1]	IC95 [1]	IC50 [1]	Downregulation of psmα expression at 10 μM (psmα)	Downregulation of RNAIII expression at 10 μM (RNAIII)	LD50 HepG2 (HepG2)	MIC (MRSA)	IC50 (MRSA (USA300 isolate))	Chemical shift perturbations upon binding to AgrAc [2]	Exotoxin-induced red blood cell (RBC) lysis (red blood cell (RBC))	Resistance after multiple passages (S. aureus [3])	Abscess size and dermo necrosis (MRSA USA300 type strain)	Viability of S. aureus (S. aureus [4])
COc1ccc2c(=O)[nH]c3c(S(=O)(=O)c4ccc(C)cc4C)nnn3c2c1 [Compound 5, 3-(2,4-dimethylphenyl)sulfonyl-8-methoxy-4H-triazolo[1,5-a]quinazolin-5-one]	6 µM	6 µg/mL	11.7 µg/mL (≈ 30.3 µM)	2.05 µg/mL (≈ 5.33 µM)	++ (++ downregulation>100-fold (2 log10))	+ (+ downregulation>10-fold (1 log10))	>=100 μM	≥ 100 µM	–	–	–	–	–	–
COc1ccc2c(=O)[nH]c3c(S(=O)(=O)c4ccc(C)cc4Cl)nnn3c2c1 [Compound 12, 3-(2-chloro-4-methyl-phenyl)sulfonyl-8-methoxy-4H-triazolo[1,5-a]quinazolin-5-one]	~1 µM	3 µg/mL	2.75 µg/mL (≈ 6.79 µM)	0.85 µg/mL (≈ 2.1 µM)	++ (++ downregulation>100-fold (2 log10))	++ (++ downregulation>100-fold (2 log10))	>=100 μM	≥ 100 µM	1.3 µM	–	–	–	–	–
COc1ccc2c(=O)[nH]c3c(S(=O)(=O)c4ccc(C)cc4Br)nnn3c2c1 [Compound 18, 3-(2-bromo-4-methyl-phenyl)sulfonyl-8-methoxy-4H-triazolo[1,5-a]quinazolin-5-one]	~1 µM	3 µg/mL	2.75 µg/mL (≈ 6.12 µM)	0.95 µg/mL (≈ 2.11 µM)	++ (++ downregulation>100-fold (2 log10))	++ (++ downregulation>100-fold (2 log10))	>=100 μM	≥ 100 µM	0.8 µM	–	–	–	–	–
COc1ccc2c(=O)[nH]c3c(S(=O)(=O)c4ccc(C)cc4C(F)(F)F)nnn3c2c1 [Compound 26, 8-methoxy-3-[4-methyl-2-(trifluoromethyl)phenyl]sulfonyl-4H-triazolo[1,5-a]quinazolin-5-one]	~1 µM	6 µg/mL	4.15 µg/mL (≈ 9.47 µM)	1 µg/mL (≈ 2.28 µM)	++ (++ downregulation>100-fold (2 log10))	++ (++ downregulation>100-fold (2 log10))	>=100 μM	≥ 100 µM	0.7 µM	–	–	–	–	–
Cc1ccc(S(=O)(=O)c2nnn3c2[nH]c(=O)c2ccccc23)c(C)c1 [Compound 34, 3-(2,4-dimethylphenyl)sulfonyl-4H-triazolo[1,5-a]quinazolin-5-one]	5 µM	4 µg/mL	3.2 µg/mL (≈ 9.03 µM)	0.9 µg/mL (≈ 2.54 µM)	++ (++ downregulation>100-fold (2 log10))	++ (++ downregulation>100-fold (2 log10))	>=100 μM	≥ 100 µM	–	clearly show an interaction	–	–	–	–
CC(C)c1ccc(S(=O)(=O)c2nnn3c2nc(O)c2ccccc23)cc1 [Savirin, reference compound]	15 µM	8 µg/mL	7.8 µg/mL (≈ 21.2 µM)	2.6 µg/mL (≈ 7.06 µM)	+ (key: 0=downregulation between 0 and 10-fold; + downregulation>10-fold (1 log10); ++ downregulation>100-fold (2 log10))	0 (0=downregulation between 0 and 10-fold)	>=100 μM	≥ 100 µM	–	–	inhibited	No resistance was developed	significant reduction	without affecting viability
